The results in this text go back to US20130289070A1, “Use of Levocabastine for Modulating Generation of Pro-Inflammatory Cytokines” (Bausch & Lomb Incorporated, priority 2007, published 2013).

The test system of the test is EoL-1 (human eosinophilic leukaemia cell line) cells. Description: TNF-α-induced cytokine release, differentiated and non-differentiated EoL-1 cells. In kind it is cell-based. How it is done:
EoL-1 (human eosinophilic leukaemia cell line) cells (Saito et al., 1985; Mayumi, 1992) were maintained in RPMI-1640 medium with L-glutamine supplemented with 10% (v/v) FBS at 37° C. in a humidified atmosphere with 5% CO2. Where indicated, 24 h before the experiment 25 ng/mL PMA ((phorbol 12-myristate 13-acetate, purchased from Sigma Aldrich) was added to the medium to induce eosinophil granulation and differentiation (Ohtsu et al., 1993; Zimmermann et al., 2000). Half-million cells were aliquoted per point in a 24 well plate; each experiment was performed in triplicate and carried out in parallel with eosinophils differentiated and non differentiated with PMA (25 ng/mL, 24 h). Cells were suspended in low serum medium (RPMI-1640, 0.1% (v/v) FBS). TNF-α was used to induce cytokine secretion as previously described by Steube et al. (2000), and the net release was obtained by comparison to the basal (non-TNF-α treated). In the first experiment we evaluated the concentration and time relation between TNF-α stimulation and cytokine release. […] An aliquot of 150 μL of supernate was collected for cytokines' analysis. […] Differentiated and non-differentiated EoL-1 cells were exposed from 0.1 to 2.3 mM levocabastine ([…]Levocabastine 0.05% solution eye drops containing cyclodextrins, without benzalkonium chloride), and aliquots of the supernates were collected after 12 and 24 h. The content of cytokines at time zero was estimated by treating the cells with 400 nM calcimycin (A-23187), which is a cytolytic agent that frees all the mediators from the cytoplasmic compartment. In addition, for each experiment we tested the effect of the vehicle, which was added to the wells in a concentration equal to the maximum amount used for drug dilution. Samples (supernates 12 and 24 h) in triplicate were analyzed using Luminex 200™ (Luminex, Austin, Tex.) and Beadview software v1.0 (Upstate Cell Signaling Solutions, Temecula, Calif.). All data are presented as mean±SEM for the indicated number of experiments. Statistical significance was determined by Newman-Keuls test after ANOVA using GraphPad Prism (version 3.0; GraphPad Software Inc., San Diego, Calif., USA).

[1] abbreviates: TNF-α challenge, text summary of Tables T-1, T-2.
[2] abbreviates: overall conclusion, in a concentration-dependent manner.
[3] abbreviates: overall conclusion, in a concentration-dependent way.

Take `C[C@@H]1CN([C@H]2CC[C@](C#N)(c3ccc(F)cc3)CC2)CC[C@]1(C(=O)O)c1ccccc1` [Levocabastine, levocabastine]: the “release of IL-12p40 induced by TNF-α” value (2 mM, TNF-α 10 ng, 24 h, without PMA or differentiated with it, not influenced by VCAM-1 or fibronectin (FIG. 10)) is “effective in reducing the release”. The “release of VEGF induced by TNF-α” value (2 mM, TNF-α 10 ng, 24 h, without PMA or differentiated with it, not influenced by VCAM-1 or fibronectin (FIG. 14)) is “effective in reducing the release”. The “release of IL-12 P40 induced by TNF-α” value (2 mM, TNF-α 5, 10 and 20 ng, 12 h, without PMA or differentiated with it (FIG. 5)) is given as “capable of reducing the release”. In addition, the “release of VEGF induced by TNF-α” value (2 mM, TNF-α 5, 10 and 20 ng, 24 h, without PMA or differentiated with it (FIG. 6)) is recorded as “capable of reducing the release”. For the same molecule, the “release of VEGF induced by TNF-α” value (2 mM, TNF-α 5, 10 and 20 ng, 24 h, without PMA or differentiated with it (FIG. 8)) is “capable of reducing the release”. For the same molecule, the “release of IP-10 induced by TNF-α” value (0.1, 0.5 and 1.0 mM, 12 h, without PMA or differentiated with it (FIG. 1)) is recorded as “capable to prevent the release”. For the same molecule, the “release of VEGF induced by TNF-α” value (0.1, 0.5 and 1.0 mM, 24 h, without PMA or differentiated with it (FIG. 4)) was “capable to prevent the release”. In addition, for the setting “PMA differentiated and indifferentiated EoL-1 cells, after TNF-α challenge”, the “VEGF release (FIG. 14)” value is listed as “able to reduce”. Under setting [1], the “release of IL-1β” value is reported as “significantly reduce” and the “release of IP-10” value is “significantly reduce”. Under “overall conclusion”, the “TNF-α-induced release of IL-8” value is “statistical significant reduction”, the “TNF-α-induced release of IL-12p40” value was “statistical significant reduction” and the “TNF-α-induced release of VEGF” value is recorded as “statistical significant reduction”. The “cytokine release, general effect” value (overall conclusion, following TNF-α stimulation) is “concentration-related reduction”. Also, under setting [2], the “release of IL1-ra” value is given as “significantly reduced”, the “release of IL-1β” value is “significantly reduced” and the “release of IP-10” value is “significantly reduced”. Besides, under setting [3], the “secretion of MIP-1α” value is “increasing the secretion” and the “secretion of RANTES” value is “increasing the secretion”.
